Structures can show the parent of a compound that is named as a salt. Where two headings read alike, the source gives them in different places.
How the values were obtained:
Type in all cases: cell-based
[1] = tested on: HIV; assay: Antiviral activity using T cells; details: Human immunodeficiency virus 1, T-cell
Method: (§1) HIV-1 infection assays with cell lines.
(§2) Laboratory strains of HIV-1, HIV-2, simian immunodeficiency virus, strains with know resistance to indicated drugs, or a low-passage (clinically derived) isolates are used to infect established cell lines by using a specific multiplicity of infection (MOI) of the virus for 1 hour at 37° C. prior to washing the cells and resuspension in medium containing increasing concentrations of drug (or test compound). At 4 to 6 days post-infection, drug-treated and control wells are analyzed for an HIV-1 induced cytopathic effect and/or for the presence of viral reverse transcriptase (RT) or viral p24 antigen in the culture medium (Buckheit and Swanstrom 1991; Ojwang et al. 1994, 1995a, Rando et al. 1995).

[2] = Cytotoxicity using T cells
[3] = tested on: HIV-1; assay: Antiviral activity (HIV-1 infection assays with cell lines); details: Human immunodeficiency virus 1
Method: as §1, §2

[4] = Cytotoxicity (table Antiviral Activity & Cytotoxicity); details: established cell lines
[5] = tested on: HIV; assay: HIV infection assay in cell lines (MT-2, MT-4, Jurkat)
Method: as §1, §2

[6] = Cytotoxicity in MT-2 cells; details: human
[7] = Cytotoxicity in PBMCs; details: human
Method: (§3) Peripheral blood mononuclear cells (PBMCs), Core blood mononuclear cells (CBMCs) and peripheral blood lymphocytes (PBLs) are isolated from the blood of HIV-1 negative and hepatitis B virus-negative (healthy) donors by using the Ficoll-Hypaque density gradient centrifugation technique and are then cultured as described by Gartner and Popovic (1990).

[8] = tested on: HIV; assay: HIV infection of PBMCs; details: Human immunodeficiency virus 1, PBMC, read-out: HIV IC50 (uM) PBMCs
Method: HIV-1 infection of PBMCs, CBMCs, and PBL.
as §3
PBMCs or CBMCs (2×10^5 cells/well) were infected with various isolates of HIV-1 at an MOI of 0.01. After 2 hours at 37C the cells are washed and treated with various concentrations of drug or test compound (Buckheit and Swanstrom 1991; Ojwang et al. 1995a). Seven days post-infection, HIV-1 replication was analyzed by the measuring the levels of RT or p24 in the culture medium.

[9] = antiviral activity, read-out: IC50
[10] = Human immunodeficiency virus 1, MT2, read-out: HIV IC50 (uM) MT-2
[11] = peripheral blood mononuclear cells (PBMCs), read-out: CC50 (uM) PBMCs

Compound | IC50 [1] | CC50 [2] | CC50 [4] | also measured
O=c1n(C2CO[C@H](CO)O2)ccc2nc(-c3ccc(F)cc3)cn12 (stereo in doubt) [Compound 43, 2-(4-FLUOROPHENYL)-6-[(2S,4S)-2- HYDROXYMETHYL-1,3-DIOXOLAN-4-YL]- 5,6-DIHYDRO[1,3]DIAZOLO[1,2- C][1,3]DIAZIN-5-ONE] | 0.31 µM | > 100 µM | – | –
O=c1n([C@H]2CO[C@@H](CO)O2)cc(F)c2nc(-c3ccc(F)cc3)cn12 (stereo in doubt) [Compound 48] | 0.026 µM | > 100 µM | > 100 µM | IC50 [3, 9]: 0.026 µM
O=c1n([C@@H]2CC[C@H](CO)O2)ccc2nc(-c3ccc([N+](=O)[O-])cc3)cn12 [Compound 31, 6-[(2S,5R)-5-HYDROXYMETHYL OXOLAN-2-YL]-2-(4-NITROPHENYL)-5,6- DIHYDRO[1,3]-DIAZOLO[1,2-C][1,3]DIAZIN-5-ONE] | 9.7 µM | 45 µM | – | –
O=c1n([C@H]2CC[C@@H](CO)O2)ccc2nc(-c3ccc([N+](=O)[O-])cc3)cn12 [Compound 32, 2-(4- NITROPHENYL)-6-[(2R,5S)-5- HYDROXYMETHYLOXOLAN-2-YL]-5,6- DIHYDRO[1,3]-DIAZOLO[1,2-C][1,3]DIAZIN-5-ONE] | 7 µM | > 100 µM | – | –
O=c1n([C@@H]2CC[C@H](CO)O2)cc(F)c2nc(-c3ccc(F)cc3)cn12 [Compound 33, 8-FLUORO-2-(4-FLUOROPHENYL)-6- [(5R,2S)-5-HYDROXYMETHYL OXOLAN- 2-YL]-5,6-DIHYDRO[1,3]DIAZOLO[1,2- C][1,3]DIAZIN-5-ONE] | 4 µM | 90 µM | – | –
O=c1n([C@H]2CC[C@@H](CO)O2)cc(F)c2nc(-c3ccc([N+](=O)[O-])cc3)cn12 [Compound 36, 8-FLUORO-2-(4-NITROPHENYL)-6- [(2R,5S)-5-HYDROXYMETHYL OXOLAN- 2-YL]-5,6-DIHYDRO[1,3]-DIAZOLO[1,2- C][1,3]DIAZIN-5-ONE] | 1 µM | > 100 µM | – | –
O=c1n([C@H]2CO[C@@H](CO)O2)ccc2nc(-c3ccc(F)cc3)cn12 [Compound 44, 2-(4-FLUOROPHENYL)-6-[(2R,4R)-2- HYDROXYMETHYL-1,3-DIOXOLAN-4-YL]- 5,6-DIHYDRO[1,3]DIAZOLO[1,2- C][1,3]DIAZIN-5-ONE] | 0.0032 µM | > 100 µM | > 100 µM | IC50 [3, 9]: 0.003 µM
O=c1n([C@@H]2CO[C@H](CO)O2)ccc2nc(-c3ccc([N+](=O)[O-])cc3)cn12 [Compound 45, L2-(4-NITROPHENYL)-6-[(2S,4S)-2- HYDROXYMETHYL-1,3-DIOXOLAN-4-YL]- 5,6-DIHYDRO[1,3]DIAZOLO[1,2- C][1,3]DIAZIN-5-ONE] | 0.25 µM | 10 µM | – | IC50 [5, 10]: 3 µM; CC50 [6]: 2 µM
O=c1n([C@H]2CO[C@@H](CO)O2)ccc2nc(-c3ccc([N+](=O)[O-])cc3)cn12 [Compound 46, 2-(4-NITROPHENYL)-6-[(2R,4R)-2- HYDROXYMETHYL-1,3-DIOXOLAN-4-YL]- 5,6-DIHYDRO[1,3]DIAZOLO[1,2- C][1,3]DIAZIN-5-ONE] | 0.1 µM | > 100 µM | > 100 µM | IC50 [3, 9]: 0.1 µM
O=c1n([C@@H]2CO[C@H](CO)O2)cc(F)c2nc(-c3ccc([N+](=O)[O-])cc3)cn12 [Compound 49] | – | – | – | IC50 [3]: 0.005 µM; IC50 ([5]; Human immunodeficiency virus 1, Jurkat, read-out: HIV IC50 (uM) Jurkat): 0.24 µM; IC50 [5, 10]: 0.13 µM; IC50 ([5]; Human immunodeficiency virus 1, MT4, read-out: HIV IC50 (uM) (MT-4)): 0.015 µM; CC50 [6]: 6.5 µM; CC50 [7, 11]: < 10 µM
O=c1n([C@H]2CO[C@@H](CO)O2)cc(F)c2nc(-c3ccc([N+](=O)[O-])cc3)cn12 [Compound 50] | 0.44 µM | > 100 µM | > 100 µM | IC50 [3, 9]: 0.44 µM; IC50 [5, 10]: 2.8 µM; CC50 [6]: > 10 µM
O=c1n([C@H]2CO[C@H](CO)O2)ccc2nc(-c3ccc([N+](=O)[O-])cc3)cn12 [Compound 53] | 0.4 µM | > 10 µM | – | –
O=c1n([C@H]2CO[C@H](CO)O2)cc(F)c2nc(-c3ccc(F)cc3)cn12 [Compound 55] | 48 µM | > 100 µM | – | –
O=c1n([C@@H]2CO[C@@H](CO)O2)cc(F)c2nc(-c3ccc([N+](=O)[O-])cc3)cn12 [Compound 58] | 60 µM | > 100 µM | > 100 µM | IC50 [3]: 60 µM
CC(C)[C@H](N)C(=O)OCC1OC[C@H](n2ccc3nc(-c4ccc(F)cc4)cn3c2=O)O1 (some centres unmarked) [Compound 60, 2-AMINO-3-METHYL-BUTYRIC ACID 4-[2- (4-FLUORO-PHENYL)-5-OXO-IMIDAZO [1,2-C]PYRIMIDIN-6-YL]-[1,3]DIOXOLAN-2- YLMETHYL ESTER; HYDROCHLORIDE SALT] | – | – | – | IC50 [8]: 0.6 µM; CC50 [7]: > 10 µM
O=c1n([C@H]2CO[C@@H](CO)O2)ccc2nc(-c3ccccc3)cn12 [Compound 62, 6-(2-HYDROXYMETHYL-[1,3]DIOXOLAN- 4-YL)-2-PHENYL-6H-IMIDAZO[1,2-C]PYRIMIDIN-5-ONE] | – | – | – | IC50 ([8]; PBMCs): 8 µM; CC50 [7, 11]: > 10 µM
